The results in this text go back to patent US20260085053A1, “BENZOFURAN DERIVATIVES AS SIK INHIBITORS AND THE USE THEREOF” (BEONE MEDICINES I GMBH, priority 2023, published 2026).

In general, IC50 refers to the point on the concentration scale where inhibition reaches its midpoint.

Experiment [1] concerns the target T1, SIK1 kinase (aa1-303, Thermo Fisher) (Homo sapiens, UniProt P57059).
T1 construct: SIK1 kinase (aa1-303, Thermo Fisher); purchased Thermo Fisher
Kind of experiment: Biochemical activities determination for SIK1 protein (TR-FRET). The following applies: 110 uM ATP, 0.5 μM STK1 substrate. The method, boiled down:
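TR-FRET kinase assay with SIK1 (aa1-303), 110 uM ATP, 0.5 μM STK1 substrate and 0-10 μM compound in Tris pH 7.5 with MgCl2, EGTA, DTT, Triton X-100. Enzyme preincubated with compound 60 min, reaction 180 min at room temperature; 665/620 nm ratio after overnight detection; IC50 from four-parameter logistic fit.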
Background: Time-resolved FRET reads energy transfer from a long-lived donor to a nearby acceptor.

Experiment [2] has as its target T2, SIK2 kinase (full length, Thermo Fisher) (Homo sapiens, UniProt Q9H0K1).
T2 construct: SIK2 kinase (full length, Thermo Fisher); purchased Thermo Fisher
Kind of experiment: Biochemical activities determination for SIK2 protein (TR-FRET). The following applies: 80 uM ATP, 0.5 μM substrate. The method, boiled down:
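Full-length SIK2 preincubated 60 min with 0–10 μM compound, then reacted 180 min at room temperature with 80 uM ATP and 0.5 μM biotinylated substrate (pH 7.5 Tris/MgCl2 buffer). Phosphorylation detected by TR-FRET (665/620 nm ratio, cryptate antibody/streptavidin-XL665) after overnight incubation; IC50 from four-parameter logistic fit.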

For experiment [3], the target named is T3, SIK3 kinase (aa59-365, Thermo Fisher) (Homo sapiens, UniProt Q9Y2K2).
T3 construct: SIK3 kinase (aa59-365, Thermo Fisher); purchased Thermo Fisher
The experiment can be described thus: Biochemical activities determination for SIK3 protein (TR-FRET). To be noted: 125 uM ATP, 0.5 μM STK1 substrate. An outline of the steps: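 SIK3 (aa59-365) was preincubated with compound (0-10 μM) for 60 min at room temperature in Tris buffer pH 7.5. The reaction was then started with 125 uM ATP and 0.5 μM STK1 substrate and run 180 min at room temperature. Phospho-substrate was detected by HTRF (665/620 nm ratio), and IC50 came from a four-parameter logistic fit.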

T1 sequence (P57059 1-303): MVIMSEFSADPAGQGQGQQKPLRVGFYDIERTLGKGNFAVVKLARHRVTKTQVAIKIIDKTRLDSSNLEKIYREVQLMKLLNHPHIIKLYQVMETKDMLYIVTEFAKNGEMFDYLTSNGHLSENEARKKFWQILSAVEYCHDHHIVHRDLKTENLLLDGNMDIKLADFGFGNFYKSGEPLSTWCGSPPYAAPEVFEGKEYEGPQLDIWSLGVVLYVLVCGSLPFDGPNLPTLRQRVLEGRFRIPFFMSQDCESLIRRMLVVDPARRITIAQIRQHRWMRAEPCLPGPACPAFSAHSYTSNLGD
T3 sequence (Q9Y2K2 59-365): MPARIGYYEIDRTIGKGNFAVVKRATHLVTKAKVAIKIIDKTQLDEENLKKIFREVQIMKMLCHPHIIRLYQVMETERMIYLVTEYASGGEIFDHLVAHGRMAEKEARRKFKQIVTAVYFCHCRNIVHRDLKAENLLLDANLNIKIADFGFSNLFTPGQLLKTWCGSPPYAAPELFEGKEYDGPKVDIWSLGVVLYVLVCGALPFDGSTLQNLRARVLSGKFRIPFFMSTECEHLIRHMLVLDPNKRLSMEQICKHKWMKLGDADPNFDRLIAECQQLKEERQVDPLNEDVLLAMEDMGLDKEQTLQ
T2 sequence (Q9H0K1 whole entry): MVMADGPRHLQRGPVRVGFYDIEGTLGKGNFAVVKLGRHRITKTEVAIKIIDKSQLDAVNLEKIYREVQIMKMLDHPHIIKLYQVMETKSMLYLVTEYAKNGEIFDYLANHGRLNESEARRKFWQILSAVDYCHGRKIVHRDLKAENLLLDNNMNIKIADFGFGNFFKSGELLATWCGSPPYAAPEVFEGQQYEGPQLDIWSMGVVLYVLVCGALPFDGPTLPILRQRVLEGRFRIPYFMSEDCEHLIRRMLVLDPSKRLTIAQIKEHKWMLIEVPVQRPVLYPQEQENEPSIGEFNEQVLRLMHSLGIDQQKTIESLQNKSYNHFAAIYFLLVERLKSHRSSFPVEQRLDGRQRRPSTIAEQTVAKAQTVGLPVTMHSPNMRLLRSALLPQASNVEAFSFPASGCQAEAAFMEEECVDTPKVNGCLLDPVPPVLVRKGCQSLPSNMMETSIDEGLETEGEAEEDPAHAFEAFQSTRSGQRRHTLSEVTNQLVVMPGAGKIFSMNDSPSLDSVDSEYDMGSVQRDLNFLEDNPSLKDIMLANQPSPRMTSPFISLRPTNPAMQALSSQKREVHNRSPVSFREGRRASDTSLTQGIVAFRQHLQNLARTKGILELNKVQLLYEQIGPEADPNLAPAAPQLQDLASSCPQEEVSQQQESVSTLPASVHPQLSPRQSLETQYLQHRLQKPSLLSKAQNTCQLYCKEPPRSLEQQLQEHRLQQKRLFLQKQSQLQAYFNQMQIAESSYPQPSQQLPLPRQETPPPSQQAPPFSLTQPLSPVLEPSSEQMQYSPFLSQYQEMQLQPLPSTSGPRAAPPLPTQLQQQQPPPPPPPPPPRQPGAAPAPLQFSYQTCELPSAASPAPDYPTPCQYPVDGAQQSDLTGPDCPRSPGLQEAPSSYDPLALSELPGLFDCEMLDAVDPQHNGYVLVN

Turning to `CN1CC[C@@H](COc2cc(-c3coc4cc(OCCN5CCCC5)ccc34)cc(OC(F)F)c2C(=O)NC2CC2)C1` [Compound 112, (R)—N-cyclopropyl-2-(difluoromethoxy)-6-((1-methylpyrrolidin-3-yl)methoxy)-4-(6-(2-(pyrrolidin-1-yl)ethoxy)benzofuran-3-yl)benzamide], the IC50 was more than 10000 nM in experiment [1], 1300 nM in experiment [2] and 7620 nM in experiment [3].

On to `CN1CCC[C@H]1COc1cc(-c2coc3cc(OCCN4CCCC4)ccc23)cc(OC(F)F)c1C(=O)NC1CC1` [Compound 113, (S)—N-cyclopropyl-2-(difluoromethoxy)-6-((1-methylpyrrolidin-2-yl)methoxy)-4-(6-(2-(pyrrolidin-1-yl)ethoxy)benzofuran-3-yl)benzamide], for which the IC50 in experiment [1] was more than 10000 nM; in experiment [2] it was 7320 nM; in experiment [3] it was more than 10000 nM.

For the molecule `CN1CC[C@@H]1COc1cc(-c2coc3cc(OCCN4CCCC4)ccc23)cc(OC(F)F)c1C(=O)NC1CC1` [Compound 114, (R)—N-cyclopropyl-2-(difluoromethoxy)-6-((1-methylazetidin-2-yl)methoxy)-4-(6-(2-(pyrrolidin-1-yl)ethoxy)benzofuran-3-yl)benzamide], the concentration for half-maximal inhibition (IC50) is more than 10000 nM in experiment [1], 745 nM in experiment [2] and 5490 nM in experiment [3].

Turning to `CN1CC(COc2cc(-c3coc4cc(OCCN5CCCC5)ccc34)cc(OC(F)F)c2C(=O)NC2CC2)C1` [Compound 115, N-cyclopropyl-2-(difluoromethoxy)-6-((1-methylazetidin-3-yl)methoxy)-4-(6-(2-(pyrrolidin-1-yl)ethoxy)benzofuran-3-yl)benzamide], the results for the IC50 in experiment [1], in experiment [2] and in experiment [3] were more than 10000 nM, 582 nM and 4240 nM, respectively.

Take `CN1CC[C@H](COc2cc(-c3coc4cc(OCCN5CCCC5)ccc34)cc(OC(F)F)c2C(=O)NC2CC2)C1` [Compound 116, (S)—N-cyclopropyl-2-(difluoromethoxy)-6-((1-methylpyrrolidin-3-yl)methoxy)-4-(6-(2-(pyrrolidin-1-yl)ethoxy)benzofuran-3-yl)benzamide]: the half-inhibitory concentration (IC50) in experiment [1] is more than 10000 nM; in experiment [2], 1120 nM; in experiment [3] it was more than 10000 nM.

Consider `CN1CC[C@H]1COc1cc(-c2coc3cc(OCCN4CCCC4)ccc23)cc(OC(F)F)c1C(=O)NC1CC1` [Compound 117, (S)—N-cyclopropyl-2-(difluoromethoxy)-6-((1-methylazetidin-2-yl)methoxy)-4-(6-(2-(pyrrolidin-1-yl)ethoxy)benzofuran-3-yl)benzamide], for which the values for the IC50 in experiment [1], in experiment [2] and in experiment [3] were more than 10000 nM, 2940 nM and more than 10000 nM, respectively.

As for `CN(C)CCOc1cc(-c2coc3cc(OCCN4CCCC4)ccc23)cc(OC(F)F)c1C(=O)NC1CC1` [Compound 118, N-cyclopropyl-2-(difluoromethoxy)-6-(2-(dimethylamino)ethoxy)-4-(6-(2-(pyrrolidin-1-yl)ethoxy)benzofuran-3-yl)benzamide], the IC50 in experiment [1] was more than 10000 nM; in experiment [2], 781 nM; in experiment [3] it was 6310 nM.

With `CCOc1cc(-c2coc3cc(OCCN4CCCC4)ccc23)cc(OC(F)F)c1C(=O)NC1CC1` [Compound 119, N-cyclopropyl-2-(difluoromethoxy)-6-ethoxy-4-(6-(2-(pyrrolidin-1-yl)ethoxy)benzofuran-3-yl)benzamide], the IC50 in experiment [1] stood at 7180 nM; in experiment [2] it was 136 nM; in experiment [3], 452 nM.

With `CC(C)Oc1cc(-c2coc3cc(OCCN4CCCC4)ccc23)cc(OC(F)F)c1C(=O)NC1CC1` [Compound 120, N-cyclopropyl-2-(difluoromethoxy)-6-isopropoxy-4-(6-(2-(pyrrolidin-1-yl)ethoxy)benzofuran-3-yl)benzamide], the IC50 in experiment [1] is more than 10000 nM; in experiment [2], 619 nM; in experiment [3], 2540 nM.

With `O=C(NC1CC1)c1c(OC(F)F)cc(-c2coc3cc(OCCN4CCCC4)ccc23)cc1OC1CC1` [Compound 121, 2-cyclopropoxy-N-cyclopropyl-6-(difluoromethoxy)-4-(6-(2-(pyrrolidin-1-yl)ethoxy)benzofuran-3-yl)benzamide], the IC50 is more than 10000 nM in experiment [1], 438 nM in experiment [2] and 2120 nM in experiment [3].

As to `CNc1cc(-c2coc3cc(OCCN4CCCC4)ccc23)cc(OC(F)F)c1C(=O)NC1CC1` [Compound 122, N-cyclopropyl-2-(difluoromethoxy)-6-(methylamino)-4-(6-(2-(pyrrolidin-1-yl)ethoxy)benzofuran-3-yl)benzamide], the half-maximal inhibitory concentration (IC50) in experiment [1] stood at 3960 nM; in experiment [2], 45 nM; in experiment [3], 158 nM.

Regarding `O=C(NC1CC1)c1c(OC(F)F)cc(-c2coc3cc(OCCN4CCCC4)ccc23)cc1OC(F)F` [Compound 123, N-cyclopropyl-2,6-bis(difluoromethoxy)-4-(6-(2-(pyrrolidin-1-yl)ethoxy)benzofuran-3-yl)benzamide], the values for the IC50 in experiment [1], in experiment [2] and in experiment [3] were 8000 nM, 114 nM and 506 nM, respectively.

As to `COc1cc(-c2coc3cc(OCCN4CCCC4)ccc23)cc(OC(F)F)c1C(=O)N[C@H]1CCCC[C@H]1O` [Compound 125, 2-(difluoromethoxy)-N-((1S,2R)-2-hydroxycyclohexyl)-6-methoxy-4-(6-(2-(pyrrolidin-1-yl)ethoxy)benzofuran-3-yl)benzamide], the IC50 is more than 10000 nM in experiment [1], 385 nM in experiment [2] and 2490 nM in experiment [3].

Turning to `COc1cc(-c2coc3cc(OCCN4CCCC4)ccc23)cc(OC(F)F)c1C(=O)N[C@H]1CCC[C@H]1O` [Compound 126, 2-(difluoromethoxy)-N-((1S,2R)-2-hydroxycyclopentyl)-6-methoxy-4-(6-(2-(pyrrolidin-1-yl)ethoxy)benzofuran-3-yl)benzamide], the IC50 in experiment [1] is more than 10000 nM; in experiment [2] it was 224 nM; in experiment [3], 878 nM.

For `COc1cc(-c2coc3cc(OCCN4CCCC4)ccc23)cc(OC(F)F)c1C(=O)NC1CCCCC1` [Compound 127, N-cyclohexyl-2-(difluoromethoxy)-6-methoxy-4-(6-(2-(pyrrolidin-1-yl)ethoxy)benzofuran-3-yl)benzamide], the IC50 is more than 10000 nM in experiment [1], 619 nM in experiment [2] and 2900 nM in experiment [3].

On to `COc1cc(-c2coc3cc(OCCN4CCCC4)ccc23)cc(OC(F)F)c1C(=O)NC1CCCC1` [Compound 128, N-cyclopentyl-2-(difluoromethoxy)-6-methoxy-4-(6-(2-(pyrrolidin-1-yl)ethoxy)benzofuran-3-yl)benzamide], for which the IC50 in experiment [1] was more than 10000 nM; in experiment [2], 156 nM; in experiment [3], 812 nM.

With `COc1cc(-c2coc3cc(OCCN4CCCC4)ccc23)cc(OC(F)F)c1C(=O)NC1CCC1` [Compound 129, N-cyclobutyl-2-(difluoromethoxy)-6-methoxy-4-(6-(2-(pyrrolidin-1-yl)ethoxy)benzofuran-3-yl)benzamide], the IC50 in experiment [1] is more than 10000 nM; in experiment [2], 146 nM; in experiment [3], 683 nM.

Take `COc1cc(-c2coc3cc(-c4cnn(C)c4)ccc23)cc(OC(F)F)c1C(=O)NC1CC1` [Compound 132, N-cyclopropyl-2-(difluoromethoxy)-6-methoxy-4-(6-(1-methyl-1H-pyrazol-4-yl)benzofuran-3-yl)benzamide]: the 50% inhibitory concentration (IC50) stood at 124 nM in experiment [1], 13 nM in experiment [2] and 15 nM in experiment [3].

For the molecule `COc1cc(-c2coc3cc(-c4ccc(C)nn4)ccc23)cc(OC(F)F)c1C(=O)NC1CC1` [Compound 133, N-cyclopropyl-2-(difluoromethoxy)-6-methoxy-4-(6-(6-methylpyridazin-3-yl)benzofuran-3-yl)benzamide], the figures for the IC50 in experiment [1], in experiment [2] and in experiment [3] were more than 10000 nM, 199 nM and 199 nM, respectively.

Turning to `NC1CCN(c2cccc3ccc(-c4coc5cc(OCCN6CCOCC6)ccc45)nc23)CC1` [Compound 134, 1-(2-(6-(2-morpholinoethoxy)benzofuran-3-yl)quinolin-8-yl) piperidin-4-amine], the IC50 in experiment [1] was 958 nM; in experiment [2] it was 66 nM; in experiment [3], 156 nM.

In the case of `COc1cc(-c2coc3cc(-c4cnn(C)c4)ccc23)cc2c1C(=O)N(CC(F)(F)F)CC2` [Example 1, 8-methoxy-6-(6-(1-methyl-1H-pyrazol-4-yl)benzofuran-3-yl)-2-(2,2,2-trifluoroethyl)-3,4-dihydroisoquinolin-1 (2H)-one], the figures for the IC50 in experiment [1], in experiment [2] and in experiment [3] were 303 nM, 10 nM and 19 nM, respectively.

For `CCn1cc(-c2ccc3c(-c4cc5c(c(OC)c4)C(=O)N(CC(F)(F)F)CC5)coc3c2)cn1` [Example 2, 6-(6-(1-ethyl-1H-pyrazol-4-yl)benzofuran-3-yl)-8-methoxy-2-(2,2,2-trifluoroethyl)-3,4-dihydroisoquinolin-1 (2H)-one], the IC50 was determined as 375 nM in experiment [1], 15 nM in experiment [2] and 28 nM in experiment [3].
